Source: patent US20080300298A1, “Honokiol Derivates For the Treatment of Proliferative Disorders” (priority 2005, published 2008)

Tests used:
[1] = system: MDA-MB-231 cells; assay: MDA-MB-231 tumors in nude mice; type: in vivo
Procedure: FIG. 36 is a graph of tumor volume over weeks of tumors in mice. MDA-MB-231 cells were injected into both flanks of athymic nude mice. The mice were treated with daily I.P. injections of either a vehicle (n=5) or HNK (2 mg/d, n=5) for four weeks.
Animal studies: All animals were maintained and animal experiments were performed under NIH and institutional guidelines established for the Animal Core Facility at the Cedars-Sinai Medical Center. MDA-MB-231 cells were harvested, washed twice with sterile PBS, counted and re-suspended in Matrigel (BD Biosciences, San Jose, Calif.). Six-week-old female athymic nude mice were injected subcutaneously in both flanks with cells at a density of 1×10^6 viable cells/100 μl. […] Tumor size was measured with a linear caliper for up to 5 weeks, and the volume was estimated by using the equation V=(a×b2)×0.5236, where “a” is the larger dimension and “b” the perpendicular diameter.
In vivo activity of HNK against human breast cancer. MDA-MB-231 cells were injected on both flanks of nude mice (1×10^6 cells per injection, five mice per group, two tumors in each mouse), and tumor growth was monitored weekly. […] The mice were treated with daily injections of either 2 mg HNK (100 mg/kg) or a control vehicle for four weeks; and the tumors were measured weekly.

[2] = system: NFkB in M12.4.1 cells; assay: NFkB activation (luciferase assay); type: cell-based, Mouse; conditions: M12.4.1 cells transfected with hCD40-LMP1; not necessarily to baseline
Procedure: Mouse M12.4.1 cells (1.5×107), stably transfected with hCD40-LMP1 chimeric molecule were transiently transfected with […] 4×NFkB luciferase reporter plasmid and […] Renilla luciferase vector (pRL-null; Promega, Madison, Wis.) by electroporation. Cells (2×10^6 cells/ml) were rested on ice for 15 minutes, treated with medium alone (BCM), 10 mg/ml anti-TNF-a (MP6-XT3; MP6-XT22), or […] Honokiol for 30 minutes, then incubated an additional 6 hours in the presence of BCM, 10 mg/ml anti-(m)ouse or anti-(h)uman CD40 or isotype controls. After stimulation, cells were pelleted, lysed, and assayed for relative luciferase activity (NFkB: Renilla) per manufacturer's protocol (Promega) using a Turner Designs 20/20 luminometer, with settings of 2 second delay followed by 10 second read. (Note: anti-mCD40 reacts with endougenous CD40 and anti-hCD40 reacts with transfected hCD40-LMP1).

[3] = system: RAW 264.7 cells; assay: Osteoclast differentiation assay (RANKL); type: cell-based, mouse; conditions: RAW 264.7, 5 mM (printed) honokiol 12 h, 5 nM RANKL
Procedure: (A) RAW 264.7 cells (1×10^4) were plated overnight, pretreated with 5 mM honokiol for 12 h, and then treated with 5 nM RANKL. At 4 and 5 days later, cells were stained for TRAP and evaluated for osteoclastogenesis. Photographs were taken after 5 days of incubation with RANKL. (B) The numbers of TRAP-positive multinucleated osteoclasts (>3 nuclei) per well were counted. (C) H1299 cells (2.5×10^4) were seeded into the upper wells of a Matrigel invasion chamber overnight in the absence of serum, pretreated with […] honokiol for 12 h, treated with 1 nM TNF for 24 h in the presence of 1% serum, and then subjected to invasion assay. The value for no honokiol and no TNF was set to 1.0.
Osteoclast differentiation assay. […] At days 4 and 5, the cells were stained for tartrate-resistant acid phosphatase (TRAP) expression, as previously described (18) using an acid phosphatase kit (Sigma-Aldrich), and the TRAP-positive multinucleated osteoclasts (>3 nuclei) per well were counted.
Honokiol suppresses RANKL-induced osteoclastogenesis. Because RANKL, a member of the TNF superfamily, induces osteoclastogenesis through the activation of NF-kB (Abu-Amer, Y., et al. 1997 Nat. Med. 3:1189-1190), whether honokiol can suppress RANKL-induced osteoclastogenesis was assessed. […]

[4] = system: splenic B cells; assay: CD40 mediated cytokine production of splenic B cells from treated mice; type: in vivo, C57BL/6 or mCD40-LMP1 Tg mice; conditions: honokiol 3 mg/day, day 21-70
Procedure: CD40 mediated IL-6 and TNF-alpha production was also evaluated. […] IL-6 in culture supernatants was assessed by ELISA. Mice were assessed 70 days post-immunization with CII/CF or CFA only (or naïve). Some mice received honokiol (3 mg/day) from day 21-70 post-immunization. […] TNF-a in culture supermatants was assessed by ELISA. Mice were assessed 70 days post-immunization with CII/CF or CFA only (or naïve). Some mice received honokiol (3 mg/day) from day 21-70 post-immunization. […] In LMP1 Tg mice, even negative control mice have lowered IL-6 and TNF-alpha responses. However, IL-10 was not affected, as determined by analyzing the role of Honokiol treatment on B cell IL-10 production. […] IL-10 in culture supermatants was assessed by ELISA. Mice were assessed 70 days post-immunization with CII/CF or CFA only (or naïve). Some mice received honokiol (3 mg/day) from day 21-70 post-immunization.

[5] = system: STAT-3, ERK and Akt phosphorylation in MM.1S cells; assay: Western blotting of IL-6 / IGF-1 growth signaling; type: cell-based, human; conditions: 10 ug/ml HNK for 3 and 6 h, then IL-6 (10 ng/ml) or IGF-1 (25 ng/ml)

## C=CCc1ccc(O)c(-c2ccc(O)c(CC=C)c2)c1 [HNK, Honokiol]
[1]; 2 mg HNK (100 mg/kg) daily i.p., four weeks, p<0.02 from week 2
  tumor growth: complete arrest of tumor growth
[1]; therapeutically beneficial doses
  tolerability in the animals: well tolerated by the animals
[2]
  NFkB activation (luciferase assay): inhibited by honokiol in a dose dependent manner
[3]
  RANKL-induced osteoclast differentiation (TRAP): suppressed it
[4]
  CD40 mediated IL-6 production: CD40 mediated IL-6 production is decreased
  CD40 mediated TNF-alpha production: CD40 mediated TNF-alpha production is decreased
[5]
  phosphorylation induced by IL-6 and IGF-1: significantly reduced phosphorylation of STAT-3, ERK and Akt induced by IL-6, as well as ERK and Akt induced by IGF-1
